Source: US20250171459A1, “2-METHYL-4',5'-DIHYDROSPIRO[PIPERIDINE-4,7'-THIENO[2,3-C]PYRAN] DERIVATIVES AS INHIBITORS OF APOL1 AND METHODS OF USING SAME” (Vertex Pharmaceuticals Incorporated, priority 2022, published 2025)

These molecules were tested against T1, APOL1 (Homo sapiens, UniProt O14791) (assay: MultiTox-Fluor Multiplex Cytotoxicity Assay in tet-inducible APOL1 T-REx-HEK293 cells (cell rescue, ratio of dead to live cells)). Conditions: tet-inducible transgenic APOL1 T-REx-HEK293 cell lines, 50 ng/mL tet, 24 hours; read-out: IP50 (i.e., IC50 for cell proliferation).
T1 sequence (O14791 1-398 S342G/I384M): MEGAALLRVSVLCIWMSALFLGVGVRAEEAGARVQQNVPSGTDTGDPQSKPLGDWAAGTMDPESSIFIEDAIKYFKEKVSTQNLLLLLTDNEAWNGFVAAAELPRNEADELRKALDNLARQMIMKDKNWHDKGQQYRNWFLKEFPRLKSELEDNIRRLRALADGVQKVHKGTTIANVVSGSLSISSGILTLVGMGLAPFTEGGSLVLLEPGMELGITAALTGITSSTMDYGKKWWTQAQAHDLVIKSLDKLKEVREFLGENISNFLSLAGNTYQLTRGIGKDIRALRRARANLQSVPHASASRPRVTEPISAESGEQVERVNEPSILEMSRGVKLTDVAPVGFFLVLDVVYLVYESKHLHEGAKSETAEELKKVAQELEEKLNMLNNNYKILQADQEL
Format: cell-based
How it was run: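 T-REx-HEK293 cells with tet-inducible APOL1 were treated with compound (10 μM top, 10-point 3-fold dilution, duplicate) plus 50 ng/mL tetracycline for 24 h at 37° C, in DMEM with 2% tet-free FBS. MultiTox-Fluor protease signals gave a dead/live ratio, normalized to no tet (100% viability) and tet alone (0%).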

Compound | IC50
CCc1cc2c(s1)CCO[C@@]21CCN(CC2CN(C(=O)COC)C2)[C@@H](C)C1 [Compound 436] | < 100 nM
CCc1cc2c(s1)CCO[C@@]21CCN(Cc2cn(C[C@H](O)C(C)(C)C)nn2)[C@@H](C)C1 [Compound 113] | < 100 nM
Cc1cc2c(s1)CCO[C@]21CCN(Cc2cnn(CCS(C)(=O)=O)c2)[C@@H](C)C1 [Compound 516, (2′S,4S)-2,2′-dimethyl-1′-[[1-(2-methylsulfonylethyl)pyrazol-4-yl]methyl]spiro[6,7-dihydrothieno[3,2-c]pyran-4,4′-piperidine]] | < 100 nM
CCc1cc2c(s1)CCO[C@@]21CCN(Cc2cn(C3(CO)CCOC3)nn2)[C@@H](C)C1 (some centres unmarked) [Compound 170] | 500 to 1000 nM
CCc1cc2c(s1)CCOC21CCN(Cc2cn([C@H]3CC[C@@H]3O)nn2)CC1 [Compound 1098] | 500 to 1000 nM
CCc1cc2c(s1)CCO[C@@]21CCN(Cc2cn(C(C)(C)CS(C)(=O)=O)nn2)[C@@H](C)C1 [Compound 168] | 500 to 1000 nM
CCc1cc2c(s1)CCOC21CCN(Cc2cn(CC(O)c3cnn(C)c3)nn2)CC1 (centres unmarked) [Compound 1097] | 500 to 1000 nM
C[C@H]1C[C@@]2(CCN1CCC(F)(F)F)OCCc1cc(CC(F)F)sc12 [Compound 582] | 500 to 1000 nM
CCc1cc2c(s1)C(C)COC21CCN(Cc2cnn(C)c2)CC1 (single isomer, unassigned) [Compound 1170, 2-ethyl-7-methyl-1′-[(1-methylpyrazol-4-yl)methyl]spiro[6,7-dihydrothieno[3,2-c]pyran-4,4′-piperidine]] | 100 to 500 nM
C[C@H]1C[C@@]2(CCN1Cc1cnn(CC(O)C3(O)CCC3)c1)OCCc1c2sc(C(F)(F)F)c1CO (some centres unmarked) [Compound 940] | < 100 nM
CCc1cc2c(s1)CCO[C@@]21CCN(C[C@H]2C[C@@H](N)C2)[C@@H](C)C1 [Compound 299, 3-[[(2′S,4R)-2-ethyl-2′-methyl-spiro[6,7-dihydrothieno[3,2-c]pyran-4,4′-piperidine]-1′-yl]methyl]cyclobutanamine] | 100 to 500 nM
CCc1cc2c(s1)CCOC21CCN(Cc2ccc(C(=O)NC3CC(O)C3)nc2)CC1 (centres unmarked) [Compound 1055] | < 100 nM
CCc1cc2c(s1)CCO[C@@]21CCN(CC2CN(C(=O)CC3CCS(=O)(=O)C3)C2)[C@@H](C)C1 (some centres unmarked) [Compound 465] | < 100 nM
C[C@H]1C[C@@]2(CCN1Cc1cnn(CC3(O)CC(C#N)C3)c1)OCCc1c2sc(C(F)(F)F)c1CO (some centres unmarked) [Compound 954] | < 100 nM
CCc1cc2c(s1)CCOC21CCN(Cc2ccc(C(=O)N[C@H](CC)CO)nc2)CC1 [Compound 1053] | < 100 nM
C[C@H]1C[C@@]2(CCN1Cc1cnn(CC3(C)COC3)c1)OCCc1cc(Cl)sc12 [Compound 633] | < 100 nM
CCc1cc2c(s1)CCO[C@@]21CCN(Cc2cn(Cc3c(CO)cnc(C)c3O)nn2)[C@@H](C)C1 [Compound 39] | 100 to 500 nM
CCc1cc2c(s1)CCO[C@@]21CCN(CC2CN(C(=O)Cc3sc(O)nc3O)C2)[C@@H](C)C1 [Compound 488] | < 100 nM
CC(C)C1Cc2sc(Cl)cc2C2(CCN(Cc3cnn(C)c3)[C@@H](C)C2)O1 (some centres unmarked) [Compound 532] | 100 to 500 nM
CCc1cc2c(s1)CCO[C@@]21CCN(Cc2cnc(NCC(O)CO)nc2)[C@@H](C)C1 (some centres unmarked) [Compound 217] | < 100 nM

Compound | IC50
C[C@H]1C[C@@]2(CCN1Cc1cn(C)nn1)OCCc1cc(CC(F)F)sc12 [Compound 566] | < 100 nM
COCCc1ncc(CN2CC[C@]3(C[C@@H]2C)OC[C@H](O)c2cc(Cl)sc23)cn1 [Compound 797] | 100 to 500 nM
CCc1cc2c(s1)CCO[C@@]21CCN(C[C@H]2C[C@@H](NS(=O)(=O)C(C)C)C2)[C@@H](C)C1 [Compound 395] | < 100 nM
CCc1cc2c(s1)CCOC21CCN(Cc2cn(CCS(=O)(=O)CC)nn2)CC1 [Compound 1089] | 500 to 1000 nM
CCc1cc2c(s1)CCO[C@@]21CCN(CC2CN(C(=O)Cc3cnn(C)c3)C2)[C@@H](C)C1 [Compound 455] | 100 to 500 nM
C[C@H]1C[C@@]2(CCN1Cc1cn(CCS(C)(=O)=O)nn1)OCC(F)(F)c1cc(Cl)sc12 [Compound 862, (2S,4R)-2′-chloro-4′,4′-difluoro-2-methyl-1-((1-(2-(methylsulfonyl)ethyl)-1H-1,2,3-triazol-4-yl)methyl)-4′,5′-dihydrospiro[piperidine-4,7′-thieno[2,3-c]pyran]] | 100 to 500 nM
CCc1cc2c(s1)CCO[C@@]21CCN(Cc2cn(CC3(CO)CCOCC3)nn2)[C@@H](C)C1 [Compound 79] | 100 to 500 nM
CCc1cc2c(s1)CCO[C@@]21CCN(CC2CN(C(=O)c3ccncc3)C2)[C@@H](C)C1 [Compound 430] | < 100 nM
CCc1cc2c(s1)CCO[C@@]21CCN(C[C@H]2C[C@@H](NC(=O)c3cn(C4CCOCC4)nn3)C2)[C@@H](C)C1 [Compound 321] | 100 to 500 nM
CCc1cc2c(s1)CCO[C@@]21CCN(Cc2cn(Cc3cnn(C)n3)nn2)[C@@H](C)C1 [Compound 167] | < 100 nM
CCc1cc2c(s1)CCO[C@@]21CCN(C[C@H]2C[C@@H](NC(=O)[C@H]3C[C@@H]3C(F)F)C2)[C@@H](C)C1 [Compound 305] | < 100 nM
C[C@H]1C[C@@]2(CCN1Cc1ccc(OCCO)cc1)OCCc1cc(Cl)sc12 [Compound 644] | < 100 nM
CCc1cc2c(s1)CCO[C@@]21CCN(CC(F)F)[C@@H](C)C1 [Compound 294] | 500 to 1000 nM
C[C@H]1C[C@@]2(CCN1Cc1cnn(C)c1)OCC(O)c1cc(Cl)sc12 (single isomer, unassigned) [Compound 820] | < 100 nM
CCc1cc2c(s1)CCO[C@@]21CCN(Cc2cn(CC(O)(CC)CCCO)nn2)[C@@H](C)C1 (some centres unmarked) [Compound 169] | < 100 nM
C[C@H]1C[C@@]2(CCN1Cc1cnn(CCS(C)(=O)=O)c1)OCC(O)c1cc(C(F)(F)F)sc12 (some centres unmarked) [Compound 880] | < 100 nM
CCc1cc2c(s1)CCO[C@@]21CCN(Cc2cn(CCS(=O)(=O)NCC(C)O)nn2)[C@@H](C)C1 (stereo partly drawn) [Compound 7, 2-[4-[[(2′S,4R)-2-ethyl-2′-methyl-spiro[6,7-dihydrothieno[3,2-c]pyran-4,4′-piperidine]-1′-yl]methyl]triazol-1-yl]-N-(2-hydroxypropyl)ethanesulfonamide] | < 100 nM
C[C@H]1C[C@@]2(CCN1C[C@H](O)C(N)=O)OCCc1cc(CC(F)F)sc12 [Compound 611, (2S)-3-[(2′S, 7R)-2-(2,2-difluoroethyl)-2′-methyl-spiro[4,5-dihydrothieno[2,3-c]pyran-7,4′-piperidine]-1′-yl]-2-hydroxy-propanamide] | < 100 nM
Cc1ccc(CN2CC[C@]3(C[C@@H]2C)OCCc2c3sc(Cl)c2CO)c(C)n1 [Compound 732] | 500 to 1000 nM
CCc1cc2c(s1)CCO[C@@]21CCN([C@H]2C[C@@H](NC(=O)OC(C)(C)C)C2)[C@@H](C)C1 [Compound 298] | 500 to 1000 nM

Compound | IC50
CCc1cc2c(s1)CCO[C@@]21CCN(CC(C)C)[C@@H](C)C1 [Compound 276] | 500 to 1000 nM
C[C@H]1C[C@@]2(CCN1Cc1cnn(CCS(C)(=O)=O)c1)OCC(O)c1cc(C(F)(F)F)sc12 (single isomer, unassigned) [Compound 881] | < 100 nM
C[C@H]1C[C@@]2(CCN1Cc1cnn(CC3CCOCC3)c1)OCCc1c2sc(C(F)(F)F)c1CO [Compound 905] | < 100 nM
C[C@H]1C[C@@]2(CCN1Cc1cnn(CC(O)C(N)=O)c1)OC[C@@H](O)c1cc(C(F)(F)F)sc12 (some centres unmarked) [Compound 970] | < 100 nM
C[C@H]1C[C@@]2(CCN1Cc1cnn(C3CN(S(C)(=O)=O)C3)c1)OCCc1c2sc(C(F)(F)F)c1CO [Compound 883] | < 100 nM
C[C@H]1C[C@@]2(CCN1Cc1cnn(CCO)c1)OCCc1cc(Cl)sc12 [Compound 632] | < 100 nM
C[C@H]1C[C@@]2(CCN1Cc1cn(CC(C)(CO)CO)nn1)OCCc1cc(Cl)sc12 [Compound 629] | 100 to 500 nM
CCc1cc2c(s1)CCOC21CCN(Cc2cn(CCc3csc(N)n3)nn2)CC1 [Compound 1093] | 500 to 1000 nM
CCc1cc2c(s1)CCO[C@@]21CCN(C[C@H]2C[C@@H](NC(=O)OCC3CCCCC3)C2)[C@@H](C)C1 [Compound 383] | 100 to 500 nM
Cc1cccc(CN2CC[C@]3(C[C@@H]2C)OCCc2c3sc(Cl)c2CO)n1 [Compound 739] | 500 to 1000 nM
CCc1cc2c(s1)CCO[C@@]21CCN(Cc2cn(Cc3ccnnc3)nn2)[C@@H](C)C1 [Compound 41] | < 100 nM
CCc1cc2c(s1)CCO[C@@]21CCN(Cc2cn(CC(C)(C)C(C)(C)O)nn2)[C@@H](C)C1 [Compound 109] | 100 to 500 nM
CCc1cc2c(s1)CCOC21CCN(Cc2cn(CC(C)S(C)(=O)=O)nn2)CC1 (centres unmarked) [Compound 1088] | 500 to 1000 nM
CCc1cc2c(s1)CCOC21CCN(CC2CCN(S(C)(=O)=O)CC2)CC1 [Compound 1151] | 500 to 1000 nM
CCc1cc2c(s1)CCO[C@@]21CCN(Cc2cn(C[C@H]3C[C@H](O)C3)nn2)[C@@H](C)C1 [Compound 142] | 100 to 500 nM
COC(=O)N[C@H]1C[C@@H](CN2CC[C@]3(C[C@@H]2C)OCCc2cc(CC(F)F)sc23)C1 [Compound 554] | < 100 nM
CCc1cc2c(s1)CCO[C@@]21CCN(C[C@H]2C[C@@H](NS(=O)(=O)CC#N)C2)[C@@H](C)C1 [Compound 389] | < 100 nM
CCc1cc2c(s1)CCO[C@@]21CCN(Cc2cn(Cc3c(C)cc(C)nc3O)nn2)[C@@H](C)C1 [Compound 66] | 100 to 500 nM
CCc1cc2c(s1)CCO[C@@]21CCN(Cc2cn(CC3CN(C)C(=O)CO3)nn2)[C@@H](C)C1 (some centres unmarked) [Compound 174] | 100 to 500 nM
